ChEMBL document CHEMBL4364319 (Eur J Med Chem, 2019)
The source made the active and inactive calls. The calls are words filed in the database; no cut-off is given here.

Key:
Mus musculus [1] = assay: Anti-diabetic activity in db/db mouse assessed as reduction in fasting blood glucose leave at 10 mg/kg, po dosed once daily for 3 weeks measured for every 7 days; format: functional, organism-based
Mus musculus [2] = assay: Anti-diabetic activity in 8 hrs-fasted C57BL/6 db/db mouse assessed as reduction in blood glucose AUC (0 to 120 mins) at 10 mg/kg, po pretreated for 60 mins followed by glucose challenge and measured after 120 mins post glucose challenge by OGTT relative to control; format: functional; parameters: scale not given: the % may be the effect or the level left
[3] = Stability in PBS at pH 7.4 assessed as compound remaining at 1 uM after 120 mins by LC-MS/MS analysis relative to control; format: physicochemical; conditions: read-out: Stability
[4] = AUC (0 to infinity) in Sprague-Dawley rat at 10 mg/kg, po via gavage after 48 hrs by LC-MS/MS analysis; format: ADME, organism-based; parameters: dose 10 mg/kg, route oral, time infinity; conditions: in vivo
[5] = Cytotoxicity against human LO2 cells assessed as cell viability at 20 uM after 48 hrs by MTT assay; format: cell-based, L02; conditions: read-out: Activity
Mus musculus [6] = assay: Anti-diabetic activity in 8 hrs-fasted C57BL/6 db/db mouse assessed as reduction in blood glucose AUC (0 to 120 mins) at 3 mg/kg, po pretreated for 60 mins followed by glucose challenge and measured after 120 mins post glucose challenge by OGTT relative to control; format: functional; parameters: scale not given: the % may be the effect or the level left
Dipeptidyl peptidase 9 = Dipeptidyl peptidase 9 (Homo sapiens, UniProt Q86TI2); assay: Inhibition of DPP9 (unknown origin) using Gly-Pro-AMC as substrate preincubated for 15 mins followed by substrate addition measured at 60 secs interval for 20 mins by fluorometic method
Dipeptidyl peptidase 9, sequence (Q86TI2 whole entry): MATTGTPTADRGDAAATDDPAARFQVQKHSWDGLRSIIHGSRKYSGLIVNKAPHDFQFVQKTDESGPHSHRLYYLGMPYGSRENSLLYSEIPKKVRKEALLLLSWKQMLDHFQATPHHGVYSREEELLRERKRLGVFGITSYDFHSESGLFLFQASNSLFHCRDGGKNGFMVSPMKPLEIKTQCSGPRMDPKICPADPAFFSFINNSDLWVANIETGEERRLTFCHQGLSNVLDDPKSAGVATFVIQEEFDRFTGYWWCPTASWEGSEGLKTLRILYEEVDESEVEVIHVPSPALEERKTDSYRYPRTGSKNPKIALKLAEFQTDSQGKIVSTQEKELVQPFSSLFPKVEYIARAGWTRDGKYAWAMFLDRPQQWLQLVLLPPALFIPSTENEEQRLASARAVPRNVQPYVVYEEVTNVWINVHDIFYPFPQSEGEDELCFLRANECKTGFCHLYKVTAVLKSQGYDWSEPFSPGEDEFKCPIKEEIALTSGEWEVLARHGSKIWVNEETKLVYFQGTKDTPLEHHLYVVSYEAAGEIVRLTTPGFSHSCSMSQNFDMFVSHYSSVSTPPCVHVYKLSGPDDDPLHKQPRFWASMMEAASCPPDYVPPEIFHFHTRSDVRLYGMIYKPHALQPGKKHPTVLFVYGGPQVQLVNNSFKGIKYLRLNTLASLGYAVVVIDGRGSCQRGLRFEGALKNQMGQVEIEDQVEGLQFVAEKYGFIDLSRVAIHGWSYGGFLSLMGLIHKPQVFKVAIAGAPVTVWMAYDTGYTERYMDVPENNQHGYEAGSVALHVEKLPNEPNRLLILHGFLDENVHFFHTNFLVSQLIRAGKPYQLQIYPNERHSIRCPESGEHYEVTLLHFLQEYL

[7] = Clearance in Sprague-Dawley rat assessed as (R)-2-((8-(3-aminopiperidin-1-yl)-7-(but-2-yn-1-yl)-3-methyl-2,6-dioxo-2,3,6,7-tetrahydro-1H-purin-1-yl)methyl)-5-chlorobenzoic acid level at 10 mg/kg, po via gavage after 48 hrs by LC-MS/MS analysis; format: ADME, organism-based; conditions: in vivo
Mus musculus [8] = assay: Anti-diabetic activity in db/db mouse assessed as reduction in fasting blood glucose leave at 3 mg/kg, po dosed once daily for 3 weeks measured for every 7 days; format: functional, organism-based
Rattus norvegicus [9] = organism: Rattus norvegicus; assay: animal or person; conditions: Sprague-Dawley, po, 12 h, read-out: INH
Mus musculus [10] = assay: Anti-diabetic activity in db/db mouse assessed as increase in glucose tolerance at 10 mg/kg, po dosed once daily for 3 weeks following 12 hrs fasting and glucose challenge measured up to 120 mins; format: functional, organism-based
Mus musculus [11] = assay: Anti-diabetic activity in 12 hrs-fasted ICR mouse assessed as reduction in blood glucose AUC (0 to 120 mins)at 10 mg/kg, po pretreated for 60 mins followed by glucose challenge and measured after 120 mins post glucose challenge by OGTT relative to control; format: functional; parameters: scale not given: the % may be the effect or the level left
Mus musculus [12] = assay: Anti-diabetic activity in db/db mouse assessed as reduction in blood glucose AUC (0 to 120 mins) at 3 mg/kg, po dosed once daily for 3 weeks following 12 hrs fasting and glucose challenge measured up to 120 mins relative to control; format: functional; parameters: scale not given: the % may be the effect or the level left
[13] = Cmax in Sprague-Dawley rat assessed as (R)-2-((8-(3-aminopiperidin-1-yl)-7-(but-2-yn-1-yl)-3-methyl-2,6-dioxo-2,3,6,7-tetrahydro-1H-purin-1-yl)methyl)-5-chlorobenzoic acid level at 10 mg/kg, po via gavage after 48 hrs by LC-MS/MS analysis; format: ADME, organism-based; parameters: dose 10 mg/kg, route oral; conditions: in vivo
Dipeptidyl peptidase 8 = Dipeptidyl peptidase 8 (Homo sapiens, UniProt Q6V1X1); assay: Inhibition of DPP8 (unknown origin) using Gly-Pro-AMC as substrate preincubated for 15 mins followed by substrate addition measured at 60 secs interval for 20 mins by fluorometic method
Dipeptidyl peptidase 8, sequence (Q6V1X1 whole entry): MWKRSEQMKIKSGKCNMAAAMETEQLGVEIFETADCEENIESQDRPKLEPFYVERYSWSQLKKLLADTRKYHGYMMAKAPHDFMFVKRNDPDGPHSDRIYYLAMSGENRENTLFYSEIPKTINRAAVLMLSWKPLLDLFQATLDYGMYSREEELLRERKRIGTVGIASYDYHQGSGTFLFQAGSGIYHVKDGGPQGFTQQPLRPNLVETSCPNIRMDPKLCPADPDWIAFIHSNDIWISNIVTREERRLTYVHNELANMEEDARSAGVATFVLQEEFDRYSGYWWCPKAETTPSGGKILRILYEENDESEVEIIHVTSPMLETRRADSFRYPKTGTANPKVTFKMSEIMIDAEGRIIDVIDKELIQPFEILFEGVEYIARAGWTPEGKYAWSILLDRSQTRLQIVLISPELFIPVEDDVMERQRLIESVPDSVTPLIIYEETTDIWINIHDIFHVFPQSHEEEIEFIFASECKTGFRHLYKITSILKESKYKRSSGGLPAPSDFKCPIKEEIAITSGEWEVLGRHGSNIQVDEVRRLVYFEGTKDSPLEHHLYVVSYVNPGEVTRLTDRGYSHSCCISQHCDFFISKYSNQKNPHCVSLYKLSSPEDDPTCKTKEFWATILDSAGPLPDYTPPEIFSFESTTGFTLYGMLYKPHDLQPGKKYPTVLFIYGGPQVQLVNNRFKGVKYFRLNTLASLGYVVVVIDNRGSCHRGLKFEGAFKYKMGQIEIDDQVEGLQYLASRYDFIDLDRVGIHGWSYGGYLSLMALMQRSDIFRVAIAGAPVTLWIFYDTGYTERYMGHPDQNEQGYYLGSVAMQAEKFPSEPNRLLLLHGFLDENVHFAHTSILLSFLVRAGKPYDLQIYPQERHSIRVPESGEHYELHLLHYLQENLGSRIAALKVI

[14] = Clearance in Sprague-Dawley rat at 10 mg/kg, po via gavage after 48 hrs by LC-MS/MS analysis; format: ADME, organism-based; conditions: in vivo
[15] = Half life in Sprague-Dawley rat assessed as (R)-2-((8-(3-aminopiperidin-1-yl)-7-(but-2-yn-1-yl)-3-methyl-2,6-dioxo-2,3,6,7-tetrahydro-1H-purin-1-yl)methyl)-5-chlorobenzoic acid level at 10 mg/kg, po via gavage after 48 hrs by LC-MS/MS analysis; format: ADME, organism-based; conditions: in vivo
Mus musculus [16] = assay: Anti-diabetic activity in po dosed 8 hrs-fasted C57BL/6 db/db mouse assessed as increase in glucose tolerance pretreated for 60 mins followed by glucose challenge and measured after 120 mins post glucose challenge by OGTT; format: functional, organism-based
[17] = Oral bioavailability in Sprague-Dawley rat assessed as (R)-2-((8-(3-aminopiperidin-1-yl)-7-(but-2-yn-1-yl)-3-methyl-2,6-dioxo-2,3,6,7-tetrahydro-1H-purin-1-yl)methyl)-5-chlorobenzoic acid level at 10 mg/kg via gavage after 48 hrs by LC-MS/MS analysis; format: ADME, organism-based; conditions: in vivo
Mus musculus [18] = assay: Anti-diabetic activity in 8 hrs-fasted C57BL/6 db/db mouse assessed as reduction in blood glucose AUC (0 to 120 mins) at 1 mg/kg, po pretreated for 60 mins followed by glucose challenge and measured after 120 mins post glucose challenge by OGTT relative to control; format: functional; parameters: scale not given: the % may be the effect or the level left
[19] = Cmax in Sprague-Dawley rat at 10 mg/kg, po via gavage after 48 hrs by LC-MS/MS analysis; format: ADME, organism-based; parameters: dose 10 mg/kg, route oral; conditions: in vivo
[20] = Tmax in Sprague-Dawley rat at 10 mg/kg, po via gavage after 48 hrs by LC-MS/MS analysis; format: ADME, organism-based; conditions: in vivo
Rattus norvegicus [21] = organism: Rattus norvegicus; assay: animal or person; conditions: Sprague-Dawley, po, 24 h, read-out: INH
[22] = Toxicity in db/db mouse assessed as increase in body weight at 3 to 10 mg/kg, po dosed once daily for 3 weeks and measured every day; format: organism-based; conditions: in vivo, 504 h
Mus musculus [23] = assay: Anti-diabetic activity in db/db mouse assessed as reduction in blood glucose AUC (0 to 120 mins) at 10 mg/kg, po dosed once daily for 3 weeks following 12 hrs fasting and glucose challenge measured up to 120 mins relative to control; format: functional; parameters: scale not given: the % may be the effect or the level left
[24] = Stability in Sprague-Dawley rat plasma assessed as compound remaining at 1 uM measured up to 120 mins by LC-MS/MS analysis relative to control; format: ADME, cell-free; conditions: read-out: Stability
[25] = Half life in Sprague-Dawley rat at 10 mg/kg, po via gavage after 48 hrs by LC-MS/MS analysis; format: ADME, organism-based; conditions: in vivo
[26] = Tmax in Sprague-Dawley rat assessed as (R)-2-((8-(3-aminopiperidin-1-yl)-7-(but-2-yn-1-yl)-3-methyl-2,6-dioxo-2,3,6,7-tetrahydro-1H-purin-1-yl)methyl)-5-chlorobenzoic acid level at 10 mg/kg, po via gavage after 48 hrs by LC-MS/MS analysis; format: ADME, organism-based; conditions: in vivo
[27] = AUC (0 to infinity) in Sprague-Dawley rat assessed as (R)-2-((8-(3-aminopiperidin-1-yl)-7-(but-2-yn-1-yl)-3-methyl-2,6-dioxo-2,3,6,7-tetrahydro-1H-purin-1-yl)methyl)-5-chlorobenzoic acid level at 10 mg/kg, po via gavage after 48 hrs by LC-MS/MS analysis; format: ADME, organism-based; parameters: dose 10 mg/kg, route oral, time infinity; conditions: in vivo

CC#CCn1c(N2CCC[C@@H](N)C2)nc2c1c(=O)n(Cc1ccc(Cl)cc1C(=O)OC)c(=O)n2C
Activity (Mus musculus [1]): Active | Activity (Mus musculus [2]): 54.7% | remaining at 2 h, 1 µM [3]: 101% | AUC [4]: 6107.3 ng·h/mL | viability at 48 h, 20 µM [5]: 90% | Activity (Mus musculus [6]): 28.8% | IC50 (Dipeptidyl peptidase 9): > 100 µM | CL [7]: 4.5 mL/min/kg | Activity (Mus musculus [8]): Active | inhibition in vivo at 10 mg/kg (Rattus norvegicus [9]): 85% | Activity (Mus musculus [10]): Active | Activity (Mus musculus [11]): 17.43% | Activity (Mus musculus [12]): 6% | Cmax [13]: 693.32 ng/mL | IC50 (Dipeptidyl peptidase 8): > 100 µM | CL [14]: 2.67 mL/min/kg | t1/2 [15]: 11.81 h | Activity (Mus musculus [16]): Dose-dependent effect | F [17]: 19.46% | Activity (Mus musculus [18]): 26.4% | Cmax [19]: 1180 ng/mL | Tmax [20]: 1 h | inhibition in vivo at 10 mg/kg (Rattus norvegicus [21]): 60% | Activity [22]: Non-Toxic | Activity (Mus musculus [23]): 13.2% | remaining at 2 h, 1 µM [24]: 65.2% | half-life [25]: 10.1 h | Tmax [26]: 1 h | AUC [27]: 3746.05 ng·h/mL
